Laboratory results: US20140221283A1 (Indiana University Research and Technology Corporation, priority 2011, published 2014)
*1 amine or outer side, *2 acyl side, *3 side chain or, on linkers, in order; H or OH if unused. Where a SMILES comes first, the peptide text is derived from it. Side-chain parts run from the residue outwards. [ ]: non-standard residue; d: D form. The star is where a group is joined. γGlu = O=C(O)[C@H](CCC(=O)[*:2])N[*:1]; Palmitoyl = CCCCCCCCCCCCCCCC(=O)*; Aib = CC(C)(N)C(=O)O

What was measured:
human GCGR = target: T1, human GCGR (Homo sapiens, UniProt P47871); assay: cAMP production in CHO-K1 cells stably expressing human GCGR, DiscoveRx Hithunter cAMP XS+ (Example 4); assay type: cell-based; details: procedure of Example 4
T1 construct: host or cells: CHO-K1
Experimental: (§1) The in vitro agonist potencies of the peptide of SEQ ID NO. 17 were determined using Chinese Hamster Ovary cells (CHO-K1) stably expressing human GLP-1R, GCGR or GIPR. The GLP-1R and GCGR stable cell line isogenic pools were generated by Invitrogen using their Jump-In™ targeted integration technology, whereas the stable CHO/GIPR lines were generated through classic cloning and transfection techniques (random integration) with limited dilution for selection of clones. The peptides were tested in vitro for their relative abilities to stimulate cAMP production in the various cell lines using the DiscoveRx Hithunter™ cAMP XS+ assay kit (cat#90-0075L) as per kit instructions.

human GIPR = target: T2, human GIPR (Homo sapiens, UniProt P48546); assay: cAMP production in CHO-K1 cells stably expressing human GIPR, DiscoveRx Hithunter cAMP XS+ (Example 4); assay type: cell-based; details: procedure of Example 4, read-out: EC50 (nM) at GIP receptor
T2 construct: expressed in transfected cells; host or cells: CHO-K1
T2 sequence (P48546 22-466): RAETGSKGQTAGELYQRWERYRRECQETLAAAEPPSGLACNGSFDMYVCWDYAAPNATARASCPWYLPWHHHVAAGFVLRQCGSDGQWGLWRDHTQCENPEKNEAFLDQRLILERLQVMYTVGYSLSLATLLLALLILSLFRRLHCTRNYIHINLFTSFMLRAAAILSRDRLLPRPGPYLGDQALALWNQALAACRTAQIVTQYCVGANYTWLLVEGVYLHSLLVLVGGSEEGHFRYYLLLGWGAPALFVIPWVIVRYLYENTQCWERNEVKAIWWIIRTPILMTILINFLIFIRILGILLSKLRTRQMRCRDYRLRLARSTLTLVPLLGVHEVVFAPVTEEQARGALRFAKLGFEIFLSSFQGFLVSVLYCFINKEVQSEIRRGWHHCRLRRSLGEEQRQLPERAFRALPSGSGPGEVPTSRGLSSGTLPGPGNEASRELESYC
Experimental: as §1

[1] = body weight of diet-induced obese (DIO) mice dosed daily for nine days (Example 7); assay type: in vivo; details: Day 9
Experimental: (§2) Mice were administered a vehicle control or a dose of a peptide daily for nine days. The peptides tested in this study included a peptide of SEQ ID NO: 12, a peptide of SEQ ID NO: 17, a peptide of SEQ ID NO: 18, and a peptide of SEQ ID NO: 19. Doses of each peptide were varied—each of the peptides of SEQ ID NO: 12, 17, and 19 was administered at a dose of either 3 nmol/kg or 9 nmol/kg, while the peptide of SEQ ID NO: 18 was administered at a dose of 1 nmol/kg, 3 nmol/kg, or 9 nmol/kg. Data are expressed as mean±SEM.

[2] = ambient glucose levels of DIO mice dosed daily for nine days (Example 7); assay type: in vivo
Experimental: as §2
In addition to cumulative body weight change, ambient glucose levels of the DIO mice were measured.

[3] = body weight of obese rhesus monkeys dosed daily for 21 days (Example 8); assay type: in vivo
Experimental: (§3) The in vivo effects of a peptide of the invention were confirmed in obese rhesus monkeys by administering daily for 21 days a vehicle control, a commercially available product (Liraglutide), a peptide of SEQ ID NO: 20, or a peptide of SEQ ID NO: 17. […] Body weight and food intake were measured.

[4] = food intake of obese rhesus monkeys dosed daily for 21 days (Example 8); assay type: in vivo; details: 3 μg/kg s.c. daily for 21 days
Experimental: as §3

[5] = fasting blood glucose (FBG) of diabetic rhesus monkeys treated for 10 days (Example 9); assay type: in vivo; details: 1 μg/kg s.c. for 10 days
Experimental: (§4) The in vivo effects of a peptide of the invention were tested in diabetic rhesus monkeys (n=7) that were aged 16-26 years and having an average body weight of […]. Diabetic rhesus monkeys (n=7) that were aged 16-26 years with an average body weight of […] were administered a vehicle control, Liraglutide at a dose of 10 μg/kg s.c. or a peptide of SEQ ID NO: 17 at a dose of 1 μg/kg s.c. for 10 days. At the end of each treatment, fasting blood glucose (FBG) was measured first followed by a Meal Tolerance Test (MTT) to assess glucose tolerance. […] Data are expressed in FIG. 4 as mean±SEM. *P<0.05 versus vehicle.

[6] = Meal Tolerance Test (MTT) in diabetic rhesus monkeys treated for 10 days (Example 9); assay type: in vivo; details: 1 μg/kg s.c. for 10 days
Experimental: as §4

human GLP-1R = human GLP-1R (Homo sapiens, UniProt P43220); assay: cAMP production in CHO-K1 cells stably expressing human GLP-1R, DiscoveRx Hithunter cAMP XS+ (Example 4); assay type: cell-based; design: host or cells: CHO-K1; details: CHO-K1 stably expressing human GLP-1R, procedure of Example 4
Experimental: as §1

Chain of human GLP-1R (P43220 24-463): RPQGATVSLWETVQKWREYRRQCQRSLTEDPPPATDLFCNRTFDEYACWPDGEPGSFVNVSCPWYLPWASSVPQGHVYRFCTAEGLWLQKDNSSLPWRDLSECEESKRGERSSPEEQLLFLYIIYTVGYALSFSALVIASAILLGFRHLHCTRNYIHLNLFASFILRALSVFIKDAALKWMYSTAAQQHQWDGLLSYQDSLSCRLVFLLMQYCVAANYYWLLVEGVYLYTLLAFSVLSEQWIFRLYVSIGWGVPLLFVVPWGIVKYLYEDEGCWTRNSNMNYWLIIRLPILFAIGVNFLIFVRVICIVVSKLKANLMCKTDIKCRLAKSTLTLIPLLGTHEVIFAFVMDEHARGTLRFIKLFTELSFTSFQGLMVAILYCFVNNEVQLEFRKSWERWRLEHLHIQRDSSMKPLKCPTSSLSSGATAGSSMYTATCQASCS
T1 sequence (P47871 26-477): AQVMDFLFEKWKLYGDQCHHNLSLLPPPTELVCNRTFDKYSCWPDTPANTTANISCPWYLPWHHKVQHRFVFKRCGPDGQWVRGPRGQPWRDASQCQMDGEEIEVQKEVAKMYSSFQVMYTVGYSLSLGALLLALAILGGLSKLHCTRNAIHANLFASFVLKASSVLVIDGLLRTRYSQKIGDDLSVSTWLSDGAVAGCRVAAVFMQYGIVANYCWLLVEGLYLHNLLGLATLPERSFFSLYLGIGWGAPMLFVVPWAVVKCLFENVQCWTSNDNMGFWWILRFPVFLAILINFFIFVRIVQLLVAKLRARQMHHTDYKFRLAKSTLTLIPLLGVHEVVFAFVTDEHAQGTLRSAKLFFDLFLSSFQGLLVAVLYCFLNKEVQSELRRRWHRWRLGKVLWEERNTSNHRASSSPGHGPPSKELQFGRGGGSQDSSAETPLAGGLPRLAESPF

EC50 (human GCGR): 0.11 nM | EC50 (human GIPR): > 2000 nM | EC50 (human GLP-1R): 0.075 nM
SMILES: CCCCCCCCCCCCCCCC(=O)N[C@@H](CCC(=O)N[C@@H](CCC(=O)NCCCC[C@H](NC(=O)[C@H](CC(=O)O)NC(=O)[C@H](CO)NC(=O)[C@@H](NC(=O)[C@H](Cc1ccccc1)NC(=O)[C@@H](NC(=O)CNC(=O)[C@H](CCC(N)=O)NC(=O)C(C)(C)NC(=O)[C@@H](N)Cc1c[nH]cn1)[C@@H](C)O)[C@@H](C)O)C(=O)N[C@@H](CO)C(=O)N[C@@H](CCCCN)C(=O)N[C@@H](Cc1ccc(O)cc1)C(=O)N[C@@H](CC(C)C)C(=O)N[C@@H](CC(=O)O)C(=O)NC(C)(C)C(=O)N[C@@H](CCCNC(=N)N)C(=O)N[C@@H](C)C(=O)N[C@@H](C)C(=O)N[C@@H](CCC(N)=O)C(=O)N[C@@H](CC(=O)O)C(=O)N[C@@H](Cc1ccccc1)C(=O)N[C@H](C(=O)N[C@@H](CCC(N)=O)C(=O)N[C@@H](Cc1c[nH]c2ccccc12)C(=O)N[C@@H](CC(C)C)C(=O)N[C@@H](CCSC)C(=O)N[C@@H](CC(N)=O)C(=O)N[C@H](C(=O)N[C@@H](CCCCN)C(=O)N[C@@H](CCC(N)=O)C(=O)O)[C@@H](C)O)C(C)C)C(=O)O)C(=O)O [SEQ ID NO: 17] (H-H[Aib]QGTFTSDK([γGlu-γGlu-Palmitoyl])SKYLD[Aib]RAAQDFVQWLMNTKQ-OH; N-terminus assumed)
body weight reduction ([1]; 3 nmol/kg daily): ~9.6% | body weight loss ([1]; 9 nmol/kg daily): ~35.5% | reduction in glucose levels compared to vehicle control mice ([2]; 3 nmol/kg daily, Day 7): ~28% | decrease in glucose levels compared to vehicle control mice ([2]; 3 nmol/kg daily, Day 9): ~19% | decrease in glucose levels compared to vehicle control mice ([2]; 9 nmol/kg daily, Day 4): ~48% | decrease in glucose levels compared to vehicle control mice ([2]; 9 nmol/kg daily, Day 7): ~48% | decrease in glucose levels compared to vehicle control mice ([2]; 9 nmol/kg daily, Day 9): ~45% | weight loss vs. baseline and vehicle ([3]; 3 μg/kg s.c. daily for 21 days): -1.2 kg | body weight following a one week wash-out ([3]; Day 28, after 21 days at 3 μg/kg s.c.): regained much of the weight that was lost | food intake, % change vs. baseline [4]: −25.7% | FBG change vs. vehicle [5]: −25% | fasting blood glucose (FBG) ([5]; mean±SEM): 120 ± 20 mg/dL | glucose tolerance during MTT as compared to vehicle [6]: improved glucose tolerance
